Test results as given in the Deep4Chem optical property database.

Assay: photoluminescence quantum yield (fraction); solvent given as SMILES

## c1ccc(N2c3ccc4ccccc4c3-c3c4ccccc4nc[n+]3[B-]2(c2ccccc2)c2ccccc2)cc1
In C1CCC2CCCCC2C1
  photoluminescence quantum yield: 0.07
In C1CCCCC1
  photoluminescence quantum yield: 0.06
In CCCCCC
  photoluminescence quantum yield: 0.06
In CCOC(C)=O
  photoluminescence quantum yield: 0.02
In Cc1ccccc1
  photoluminescence quantum yield: 0.03
In ClC(Cl)Cl
  photoluminescence quantum yield: 0.01

## c1ccc(N(c2ccccc2)c2ccc3c4cccc5c(N(c6ccccc6)c6ccccc6)ccc(c6cccc2c63)c54)cc1
In ClCCl
  photoluminescence quantum yield: 0.65

## Cn1cc(-c2nc3ccccc3nc2C#Cc2ccc(C#N)cc2)c2ccccc21
In ClCCl
  photoluminescence quantum yield: 0.15

## COc1ccc(-c2c3cc4ccccc4cc3c(-c3ccc(OC)cc3)c3cc4ccccc4cc23)cc1
In ClCCl
  photoluminescence quantum yield: 0.09

## CC1=CC(C)=[N+]2C1=Cc1c3ccccc3c(-c3[nH]c(C)cc3C)n1[B-]2(F)F
In ClCCl
  photoluminescence quantum yield: 0.61

## CCCC1(CCC)c2cc(-c3ccc(-c4ccccc4)cc3)ccc2-c2ccc(-c3ccc4c(c3)C(CCC)(CCC)c3cc(-c5ccc(-c6ccccc6)cc5)ccc3-4)cc21
In Cc1ccccc1
  photoluminescence quantum yield: 0.92

## C[Si]1(C)c2ccccc2-c2cc3c(cc21)-c1ccccc1[Si]3(C)C
In ClCCl
  photoluminescence quantum yield: 0.45

## C(=C\c1ccc(/C=C/c2c3ccccc3cc3ccccc23)cc1)/c1ccncc1
In C1CCOC1
  photoluminescence quantum yield: 0.34

## Cc1ccccc1-c1ccccc1C
In C1CCCCC1
  photoluminescence quantum yield: 0.01

## CN(C)c1ccc(C2=Cc3c4ccccc4c4ccccc4[n+]3[B-](F)(F)O2)cc1
In C1CCOC1
  photoluminescence quantum yield: 0.585
In C1COCCO1
  photoluminescence quantum yield: 0.855
In CC1CCCCC1
  photoluminescence quantum yield: 1
In CC#N
  photoluminescence quantum yield: 0.447
In CCOC(C)=O
  photoluminescence quantum yield: 0.655
In CCOCC
  photoluminescence quantum yield: 0.999
In CN(C)C=O
  photoluminescence quantum yield: 0.323
In CO
  photoluminescence quantum yield: 0.471
In COC(C)=O
  photoluminescence quantum yield: 0.441
In ClC(Cl)Cl
  photoluminescence quantum yield: 0.811

## COc1ccc(NC(=O)C(C(=O)Nc2ccc(OC)cc2)C(c2cc(F)ccc2O)c2c[nH]c3ccc(OC)cc23)cc1 (stereo not drawn)
In CS(C)=O
  photoluminescence quantum yield: 0.018

## CCCC(=O)c1c(OCOC)c(OCOC)c(C(=O)CCC)c2c1OCO2
In CC#N
  photoluminescence quantum yield: 0.41

## Cc1ccc(/C2=c3\cc/c(o3)=C(\c3ccc(C)cc3)c3ccc([nH]3)-c3ccc4n3[B-](F)(F)[N+]3=C(C=CC3=C4c3ccco3)c3ccc2[nH]3)cc1
In ClC(Cl)Cl
  photoluminescence quantum yield: 0.08

## CC1(C)C(/C=C/C2=C(c3ccc(C(=O)O)cc3)C(=C/C=C3/N(CCCCS(=O)(=O)[O-])c4ccc(S(=O)(=O)[O-])cc4C3(C)C)/CCC2)=[N+](CCCCS(=O)(=O)[O-])c2ccc(S(=O)(=O)[O-])cc21
In CO
  photoluminescence quantum yield: 0.1

## O=C1Cc2cc3c(cc2CCCc2ccc(cc2)CCC3)CC(=O)Cc2ccc(c3nsnc23)C1
In C1CCCCC1
  photoluminescence quantum yield: 0.13
In CC#N
  photoluminescence quantum yield: 0.01
In ClC(Cl)Cl
  photoluminescence quantum yield: 0.05

## CC1=[N+]2C(=C(c3ccc(Br)cc3)c3ccc(C)n3[B-]2(F)F)C=C1c1cc2n(c1)[B-](F)(F)[N+]1=CC=CC1=C2c1c(C)cc(C)cc1C
In C1CCCCC1
  photoluminescence quantum yield: 0.85
In CCOC(C)=O
  photoluminescence quantum yield: 0.21

## Cc1cc2[nH]c3ccccc3c2c2[nH]c3ccccc3c12
In ClCCl
  photoluminescence quantum yield: 0.223

## c1ccc(-c2ccc(-c3ccc(-c4ccccc4)cc3)cc2)cc1
In C1COCCO1
  photoluminescence quantum yield: 0.71

## Brc1ccc(-c2nc(-c3ccc(-c4nc(-c5ccc(Br)cc5)c(-c5ccc(Br)cc5)[nH]4)cc3)[nH]c2-c2ccc(Br)cc2)cc1
In CS(C)=O
  photoluminescence quantum yield: 0.49

## O=S1(=O)C2=C(c3ccccc31)C1(c3ccccc32)c2ccccc2-c2sc3ccccc3c21 (stereo not drawn)
In ClCCl
  photoluminescence quantum yield: 0.01

## COc1cccc(OC)c1-c1c2ccc(=[N+]3CCCCC3)cc-2oc2cc(N3CCCCC3)ccc12
In ClCCl
  photoluminescence quantum yield: 0.86

## CCCCCCCCC1(CCCCCCCC)c2cc3c(cc2-c2sc(-c4ccc(/C=C5\SC(=S)N(CC)C5=O)c5nsnc45)cc21)C(CCCCCCCC)(CCCCCCCC)c1cc(-c2ccc(/C=C4\SC(=S)N(CC)C4=O)c4nsnc24)sc1-3
In C1CCOC1
  photoluminescence quantum yield: 0.029
In ClC(Cl)Cl
  photoluminescence quantum yield: 0.04

## CC1=CC(C)=[N+]2C1=C(c1ccc(I)cc1)c1c(C)cc(C)n1[B-]21Oc2ccc3ccccc3c2-c2c(ccc3ccccc23)O1
In ClC(Cl)Cl
  photoluminescence quantum yield: 0.002

## COc1ccc(NC(=O)C(C(=O)Nc2ccc(OC)cc2)C(c2ccccc2O)c2c(C)[nH]c3ccccc23)cc1 (stereo not drawn)
In CO
  photoluminescence quantum yield: 0.0094
In CS(C)=O
  photoluminescence quantum yield: 0.013

## O=C([O-])c1c(Cl)c(Cl)c(Cl)c(Cl)c1-c1c2cc(I)c(=O)c(I)c-2oc2c(I)c([O-])c(I)cc12
In CC(C)O
  photoluminescence quantum yield: 0.14
In CCO
  photoluminescence quantum yield: 0.11
In CO
  photoluminescence quantum yield: 0.08
In O
  photoluminescence quantum yield: 0.018

## CC(C)(C)c1ccc(-c2c(-c3ccc(N(c4ccccc4)c4ccccc4)cc3)c(C#N)c(-c3ccc(N(c4ccccc4)c4ccccc4)cc3)c(-c3ccc(C(C)(C)C)cc3)c2-c2ccc(C(C)(C)C)cc2)cc1
In C1CCOC1
  photoluminescence quantum yield: 0.686

## CCC1=C(C)C2=Cc3c4ccccc4c4n3[B-](c3ccc(OC)cc3)(Oc3ccccc3-4)[N+]2=C1C (stereo not drawn)
In CC#N
  photoluminescence quantum yield: 0.67
In CCCCCC
  photoluminescence quantum yield: 0.71
In Cc1ccccc1
  photoluminescence quantum yield: 0.68
In ClCCl
  photoluminescence quantum yield: 0.7

## c1ccc(-c2cc3cc4ccccc4cc3p2-c2ccccc2)cc1 (stereo not drawn)
In ClCCl
  photoluminescence quantum yield: 0.035

## CC(C)n1c(=O)c2cc3ccc4cccc5ccc(c2c1=O)c3c45
In ClC(Cl)Cl
  photoluminescence quantum yield: 0.49

## O=C(O)C1=C/C(=C/C=[N+]2/c3cc(O)c(C[C@@H]4O[C@H](CO)[C@@H](O)C(O)[C@H]4O)cc3C[C@H]2C(=O)O)C[C@H](C(=O)O)N1 (stereo partly drawn)
In CO
  photoluminescence quantum yield: 0.0015
In O
  photoluminescence quantum yield: 0.0007
In OCCO
  photoluminescence quantum yield: 0.0041
In [2H]O[2H]
  photoluminescence quantum yield: 0.001

## COc1ccc(-c2cnc3cccc(-c4ccccc4)n23)cc1
In ClCCl
  photoluminescence quantum yield: 0.26

## COc1ccc(-c2oc3cccc4c5c(-c6ccc(OC)c(OC)c6)c(=N)oc6cccc(c2c34)c65)cc1OC
In ClC(Cl)Cl
  photoluminescence quantum yield: 0.41

## N#Cc1c(-n2c3ccccc3c3ccccc32)c(-n2c3ccccc3c3ccccc32)c(-n2c3ccccc3c3ccccc32)c(-n2c3ccc(-c4ccccc4)cc3c3cc(-c4ccccc4)ccc32)c1-n1c2ccccc2c2ccccc21
In Cc1ccccc1
  photoluminescence quantum yield: 0.85

## COc1ccc2c3ccc(OC)cc3n(-c3ccc(-c4nnc(C)o4)cc3)c2c1
In Cc1ccccc1
  photoluminescence quantum yield: 0.06

## CN(C)c1ccc(/C=C/c2cnc(-c3ccncc3)o2)cc1
In ClCCl
  photoluminescence quantum yield: 0.65

## CCN1c2ccc(/C=N/Nc3ccccn3)cc2Sc2cc(-c3ccc(OC)cc3)ccc21
In C1CCOC1
  photoluminescence quantum yield: 0.32
In CS(C)=O
  photoluminescence quantum yield: 0.55
In Cc1ccccc1
  photoluminescence quantum yield: 0.16
In ClCCl
  photoluminescence quantum yield: 0.38

## Cn1c(=O)cc(C(=O)c2ccccc2)c2sc(-c3ccc(C(F)(F)F)cc3)cc21
In CC#N
  photoluminescence quantum yield: 0.8
In ClCCl
  photoluminescence quantum yield: 0.82

## c1ccc2c(c1)ccc1ccc3c(c12)-c1c(ccc2ccc4ccccc4c12)C3
In ClCCl
  photoluminescence quantum yield: 0.39

## Cc1sc(Cl)cc1-c1nc(-c2ccc(Cl)cc2)[nH]c1-c1cc(Cl)sc1C
In CC#N
  photoluminescence quantum yield: 0.114

## CCCCCCCCCCCCN1C(=O)c2cccc3c(N(Cc4ccccn4)Cc4ccccn4)c4ccccc4c(c23)C1=O
In C1CCOC1
  photoluminescence quantum yield: 0.07
In CCCCCC
  photoluminescence quantum yield: 0.06
In CCO
  photoluminescence quantum yield: 0.1
In Cc1ccccc1
  photoluminescence quantum yield: 0.06
In ClCCl
  photoluminescence quantum yield: 0.12

## COCCC1=Cc2nc1ccc1[nH]c(cc1CCOC)c1nc(c(N3C(=O)CCCC3=O)cc3[nH]c2cc3CCOC)C(CCOC)=C1
In Cc1ccccc1
  photoluminescence quantum yield: 0.36

## c1ccc(-c2c3ccccc3c(-c3cncnc3)c3ccccc23)cc1
In CCO
  photoluminescence quantum yield: 0.4
In ClCCl
  photoluminescence quantum yield: 0.51

## Cc1ccc(NC(=O)c2ccc(N(C)C)cc2)cc1
In C1CCCCC1
  photoluminescence quantum yield: 0.0015
In C1CCOC1
  photoluminescence quantum yield: 0.0028
In CC#N
  photoluminescence quantum yield: 0.0027
In CCOCC
  photoluminescence quantum yield: 0.0034

## C[N+]1=C(/C=C/C=C2/N(CCC[N+](C)(C)C)c3ccc(Br)cc3C2(C)C)C(C)(C)c2ccccc21
In CS(C)=O
  photoluminescence quantum yield: 0.11

## Cc1ccc(/C2=c3\cc/c(o3)=C(\c3ccc(C)cc3)c3ccc([nH]3)-c3ccc4n3[P-](=O)(=O)[N+]3=C(C=CC3=C4c3ccc[nH]3)c3ccc2[nH]3)cc1
In ClC(Cl)Cl
  photoluminescence quantum yield: 0.15

## CC(=O)c1c(N[C@@H](CC(C)C)C(=O)O)c2ccc(N(C)C)cc2oc1=O
In ClCCl
  photoluminescence quantum yield: 0.0027

## Nc1ccc2nc(-c3ccccc3)c(=O)oc2c1
In c1ccccc1
  photoluminescence quantum yield: 0.697

## C[Si](C)(C)C#CC#Cc1ccc2c3cccc4cccc(c5cccc1c52)c43
In C1CCCCC1
  photoluminescence quantum yield: 0.51

## c1cc2ccc3cc4[nH]c(-c5cc6c(cc7ccc8cccc9ccc6c7c89)[nH]5)cc4c4ccc(c1)c2c34
In C1CCOC1
  photoluminescence quantum yield: 0.5

## CCCCN1C(=O)c2cc(Oc3ccc(C(C)(C)C)cc3)c3c4c(Oc5ccc(C(C)(C)C)cc5)cc5c(=O)n6c(c7cc(Oc8ccc(C(C)(C)C)cc8)c(c8c(Oc9ccc(C(C)(C)C)cc9)cc(c2c38)C1=O)c4c57)=Cc1cccc[n+]1[B-]6(F)F
In C1CCOC1
  photoluminescence quantum yield: 0.564
In Cc1ccccc1
  photoluminescence quantum yield: 0.451
In ClCCl
  photoluminescence quantum yield: 0.5

## CCCCCCCCCCC1(CCCCCCCCCC)c2cc(-c3nc4ccccc4s3)ccc2-c2ccc(N3C(=O)c4ccc5c6ccc7c8c(ccc(c9ccc(c4c59)C3=O)c86)C(=O)N(c3ccc4c(c3)C(CCCCCCCCCC)(CCCCCCCCCC)c3cc(-c5nc6ccccc6s5)ccc3-4)C7=O)cc21
In Cc1ccccc1
  photoluminescence quantum yield: 0.23
In ClCCl
  photoluminescence quantum yield: 0.0025

## CCCCN1c2ccccc2Sc2cc(/C=C/C3=Nc4ccc5ccccc5c4C3(C)C)ccc21
In C1CCCCC1
  photoluminescence quantum yield: 0.09
In C1CCOC1
  photoluminescence quantum yield: 0.12
In C1COCCO1
  photoluminescence quantum yield: 0.17
In CC#N
  photoluminescence quantum yield: 0.05
In CC(C)=O
  photoluminescence quantum yield: 0.06
In CC(C)O
  photoluminescence quantum yield: 0.07
In CCOC(C)=O
  photoluminescence quantum yield: 0.13
In CCOCC
  photoluminescence quantum yield: 0.14
In CO
  photoluminescence quantum yield: 0.01
In CS(C)=O
  photoluminescence quantum yield: 0.09
In Cc1ccccc1
  photoluminescence quantum yield: 0.18
In ClCCl
  photoluminescence quantum yield: 0.11

## O=C1c2ccc3c4ccc5c6c(ccc(c7ccc(c2c37)C(=O)N1c1ccncc1)c64)C(=O)N(c1ccncc1)C5=O
In C1CCOC1
  photoluminescence quantum yield: 0.508
In C1COCCO1
  photoluminescence quantum yield: 0.847
In CC(C)=O
  photoluminescence quantum yield: 0.758
In CC(C)O
  photoluminescence quantum yield: 0.454
In CCCCO
  photoluminescence quantum yield: 0.46
In CCO
  photoluminescence quantum yield: 0.201
In CCOC(C)=O
  photoluminescence quantum yield: 0.337
In CN(C)C=O
  photoluminescence quantum yield: 0.438
In CO
  photoluminescence quantum yield: 0.206
In CS(C)=O
  photoluminescence quantum yield: 0.057
In ClC(Cl)(Cl)Cl
  photoluminescence quantum yield: 0.97
In ClC(Cl)Cl
  photoluminescence quantum yield: 0.97
